Laboratory results published in US6355799B1, “Substituted benzene compounds, process for their preparation, and herbicidal and defoliant compositions containing them” (ISK Americas Incorporated, priority 1997, dated 2002).
Read-outs that look alike come from different tables or passages of the source.

Assays:
Assay type in all cases: in vivo
[1] = tested on: sicklepod (Cassia obtusifolia, CASOB); experiment: Post-emerge test, greenhouse herbicide activity screening; conditions: post-emerge; for phytotoxicity rating CASOB: 14 days after application, rating scale 0-100
Method in brief: (§1)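 Compounds in acetone were track-sprayed at 15–1000 g ai/ha: pre-emergence onto soil sown the previous day, then top-watered to incorporate and later bottom-watered; post-emergence onto 2–3 leaf plants with 0.25% v/v surfactant, bottom-watered only. Ratings on a 0–100 phytotoxicity scale were taken at day 14.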

[2] = tested on: green foxtail (Setaria viridis, SETVI); experiment: as above; conditions: post-emerge; for phytotoxicity rating SETVI: 14 days after application, rating scale 0-100
Method in brief: as §1

[3] = tested on: velvetleaf (Abutilon theophrasti, ABUTH); experiment: as above; conditions: post-emerge; for phytotoxicity rating ABUTH: 14 days after application, rating scale 0-100
Method in brief: as §1

[4] = tested on: johnsongrass (Sorghum halepense, SORHA); experiment: as above; conditions: post-emerge; for phytotoxicity rating SORHA: 14 days after application, rating scale 0-100
Method in brief: as §1

[5] = tested on: large crabgrass (Digitaria sanguinalis, DIGSA); experiment: as above; conditions: post-emerge; for phytotoxicity rating DIGSA: 14 days after application, rating scale 0-100
Method in brief: as §1

[6] = tested on: redroot pigweed (Amaranthus retroflexus, AMARE); experiment: as above; conditions: post-emerge; for phytotoxicity rating AMARE: 14 days after application
Method in brief: as §1

[7] = tested on: lambsquarters (Chenopodium album, CHEAL); experiment: as above; conditions: post-emerge; for phytotoxicity rating CHEAL: 14 days after application, rating scale 0-100
Method in brief: as §1

[8] = tested on: sicklepod (Cassia obtusifolia, CASOB); experiment: Pre-emerge test, greenhouse herbicide activity screening; conditions: Senna obtusifolia, pre-emergence, 336 h, read-out: Pre-emerge Herbicidal Activity CASOB
Method in brief: (§2)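 Fourteen days after spraying, crop and weed injury was graded visually from 0, no effect, to 100, every plant dead. Test substances were dissolved in acetone and applied at 15–1000 g ai/ha with a flat-fan nozzle. Application was either pre-emergence, one day after sowing, or post-emergence at the 2–3 leaf stage.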

[9] = tested on: green foxtail (Setaria viridis, SETVI); experiment: as above; conditions: Setaria viridis, pre-emergence, 336 h, read-out: Pre-emerge Herbicidal Activity SETVI
Method in brief: as §2

[10] = tested on: velvetleaf (Abutilon theophrasti, ABUTH); experiment: as above; conditions: Abutilon theophrasti, pre-emergence, 336 h, read-out: Pre-emerge Herbicidal Activity ABUTH
Method in brief: as §2

[11] = tested on: ivyleaf morningglory (Ipomoea hederacea, IPOHE); experiment: as above; conditions: Ipomoea, pre-emergence, 336 h, read-out: Pre-emerge Herbicidal Activity IPOHE
Method in brief: as §2

[12] = tested on: johnsongrass (Sorghum halepense, SORHA); experiment: as above; conditions: Sorghum halepense, pre-emergence, 336 h, read-out: Pre-emerge Herbicidal Activity SORHA
Method in brief: as §2

[13] = tested on: large crabgrass (Digitaria sanguinalis, DIGSA); experiment: as above; conditions: Digitaria sanguinalis, pre-emergence, 336 h, read-out: Pre-emerge Herbicidal Activity DIGSA
Method in brief: as §2

[14] = tested on: lambsquarters (Chenopodium album, CHEAL); experiment: as above; conditions: Chenopodium album, pre-emergence, 336 h, read-out: Pre-emerge Herbicidal Activity CHEAL
Method in brief: as §2

[15] = tested on: barnyardgrass (Echinochloa crus-galli, ECHCG); experiment: as above; conditions: Echinochloa crus-galli, pre-emergence, 336 h, read-out: Pre-emerge Herbicidal Activity ECHCG
Method in brief: as §2

[16] = 63 g ai/ha, phytotoxicity rating 0-100, 14 days after application
[17] = 250 g ai/ha, phytotoxicity rating 0-100, 14 days after application
[18] = pre-emerge, rate 63 g ai/ha, phytotoxicity rating 0-100 at 14 days after application
[19] = pre-emerge, rate 250 g ai/ha, phytotoxicity rating 0-100 at 14 days after application

## COc1c(Cl)cc(F)c(-n2c(=O)cc(C(F)(F)F)n(C)c2=O)c1NC(N)=O [Compound 3-26, 3-(2-aminocarbonylamino-4-chloro-6-fluoro-3-methoxyphenyl)-1-methyl-6-trifluoromethyl-2,4(1H, 3H)-pyrimidinedione]
[1]; 63 g ai/ha
  phytotoxicity rating CASOB: 20
[1]; 250 g ai/ha
  phytotoxicity rating CASOB: 60
[2]; 63 g ai/ha
  phytotoxicity rating SETVI: 0
[2]; 250 g ai/ha
  phytotoxicity rating SETVI: 0
[3]; 63 g ai/ha
  phytotoxicity rating ABUTH: 60
[3]; 250 g ai/ha
  phytotoxicity rating ABUTH: 60
[4]; 63 g ai/ha
  phytotoxicity rating SORHA: 0
[4]; 250 g ai/ha
  phytotoxicity rating SORHA: 0
[5]; 63 g ai/ha
  phytotoxicity rating DIGSA: 0
[5]; 250 g ai/ha
  phytotoxicity rating DIGSA: 0
[6]; 63 g ai/ha, rating scale 0-100 (0 no damage, 100 complete death)
  phytotoxicity rating AMARE: 50
[6]; 250 g ai/ha, rating scale 0-100
  phytotoxicity rating AMARE: 65
[7]; 63 g ai/ha
  phytotoxicity rating CHEAL: 50
[7]; 250 g ai/ha
  phytotoxicity rating CHEAL: 60
[8]; [16]
  pest or weed control at 63 g/ha: 40%
[8]; [17]
  pest or weed control at 250 g/ha: 90%
[9]; [16]
  pest or weed control at 63 g/ha: 0%
[9]; [17]
  pest or weed control at 250 g/ha: 85%
[10]; [16]
  pest or weed control at 63 g/ha: 75%
[10]; [17]
  pest or weed control at 250 g/ha: 100%
[11]; [16]
  pest or weed control at 63 g/ha: 50%
[11]; [17]
  pest or weed control at 250 g/ha: 100%
[12]; [16]
  pest or weed control at 63 g/ha: 0%
[12]; [17]
  pest or weed control at 250 g/ha: 50%
[13]; [16]
  pest or weed control at 63 g/ha: 0%
[13]; [17]
  pest or weed control at 250 g/ha: 80%
[14]; [16]
  pest or weed control at 63 g/ha: 80%
[14]; [17]
  pest or weed control at 250 g/ha: 90%
[15]; [16]
  pest or weed control at 63 g/ha: 0%
[15]; [17]
  pest or weed control at 250 g/ha: 30%

## CC(C)Oc1c(Cl)cc(F)c(-n2nnn(CCCF)c2=O)c1N [Compound 5-18, 1-(2-amino-4-chloro-6-fluoro-3-isopropyloxyphenyl)-4-(3fluoropropyl)-1,4-dihydro-5-oxo-5H-tetrazole]
[1]; Senna obtusifolia, post-emergence, 336 h, 63 g ai/ha, phytotoxicity rating 0-100 at 14 days after application, read-out: Post-emerge Herbicidal Activity CASOB
  pest or weed control at 63 g/ha: 0%
[1]; Senna obtusifolia, post-emergence, 336 h, 250 g ai/ha, phytotoxicity rating 0-100 at 14 days after application, read-out: Post-emerge Herbicidal Activity CASOB
  pest or weed control at 250 g/ha: 0%
[2]; Setaria viridis, post-emergence, 336 h, 63 g ai/ha, phytotoxicity rating 0-100 at 14 days after application, read-out: Post-emerge Herbicidal Activity SETVI
  pest or weed control at 63 g/ha: 0%
[2]; Setaria viridis, post-emergence, 336 h, 250 g ai/ha, phytotoxicity rating 0-100 at 14 days after application, read-out: Post-emerge Herbicidal Activity SETVI
  pest or weed control at 250 g/ha: 0%
[3]; Abutilon theophrasti, post-emergence, 336 h, 63 g ai/ha, phytotoxicity rating 0-100 at 14 days after application, read-out: Post-emerge Herbicidal Activity ABUTH
  pest or weed control at 63 g/ha: 70%
[3]; Abutilon theophrasti, post-emergence, 336 h, 250 g ai/ha, phytotoxicity rating 0-100 at 14 days after application, read-out: Post-emerge Herbicidal Activity ABUTH
  pest or weed control at 250 g/ha: 70%
[4]; Sorghum halepense, post-emergence, 336 h, 63 g ai/ha, phytotoxicity rating 0-100 at 14 days after application, read-out: Post-emerge Herbicidal Activity SORHA
  pest or weed control at 63 g/ha: 0%
[4]; Sorghum halepense, post-emergence, 336 h, 250 g ai/ha, phytotoxicity rating 0-100 at 14 days after application, read-out: Post-emerge Herbicidal Activity SORHA
  pest or weed control at 250 g/ha: 0%
[5]; Digitaria sanguinalis, post-emergence, 336 h, 63 g ai/ha, phytotoxicity rating 0-100 at 14 days after application, read-out: Post-emerge Herbicidal Activity DIGSA
  pest or weed control at 63 g/ha: 0%
[5]; Digitaria sanguinalis, post-emergence, 336 h, 250 g ai/ha, phytotoxicity rating 0-100 at 14 days after application, read-out: Post-emerge Herbicidal Activity DIGSA
  pest or weed control at 250 g/ha: 0%
[6]; Amaranthus retroflexus, post-emergence, 336 h, 63 g ai/ha, phytotoxicity rating 0-100 at 14 days after application, read-out: Post-emerge Herbicidal Activity AMARE
  pest or weed control at 63 g/ha: 0%
[6]; Amaranthus retroflexus, post-emergence, 336 h, 250 g ai/ha, phytotoxicity rating 0-100 at 14 days after application, read-out: Post-emerge Herbicidal Activity AMARE
  pest or weed control at 250 g/ha: 10%
[7]; Chenopodium album, post-emergence, 336 h, 63 g ai/ha, phytotoxicity rating 0-100 at 14 days after application, read-out: Post-emerge Herbicidal Activity CHEAL
  pest or weed control at 63 g/ha: 10%
[7]; Chenopodium album, post-emergence, 336 h, 250 g ai/ha, phytotoxicity rating 0-100 at 14 days after application, read-out: Post-emerge Herbicidal Activity CHEAL
  pest or weed control at 250 g/ha: 10%
[8]; [18]
  pest or weed control at 63 g/ha: 0%
[8]; [19]
  pest or weed control at 250 g/ha: 10%
[9]; [18]
  pest or weed control at 63 g/ha: 95%
[9]; [19]
  pest or weed control at 250 g/ha: 90%
[10]; [18]
  pest or weed control at 63 g/ha: 40%
[10]; [19]
  pest or weed control at 250 g/ha: 70%
[11]; [18]
  pest or weed control at 63 g/ha: 0%
[11]; [19]
  pest or weed control at 250 g/ha: 0%
[12]; [18]
  pest or weed control at 63 g/ha: 40%
[12]; [19]
  pest or weed control at 250 g/ha: 30%
[13]; [18]
  pest or weed control at 63 g/ha: 30%
[13]; [19]
  pest or weed control at 250 g/ha: 20%
[14]; [18]
  pest or weed control at 63 g/ha: 70%
[14]; [19]
  pest or weed control at 250 g/ha: 95%
[15]; [18]
  pest or weed control at 63 g/ha: 0%
[15]; [19]
  pest or weed control at 250 g/ha: 0%
